Legend:
Assay type in all cases: in vivo, Catharanthus roseus
CrLHCB2.2 = experiment: Paclobutrazol treatment of etiolated seedlings: CrLHCB2.2 expression by qPCR (positive control); settings: 1 μM PAC, dark-grown seedlings, 4 days, vs DMSO mock; normalized to SAND
Method: (§1) Because PAC might disrupt germination, seedlings were first germinated normally without any treatment by incubating them in the dark for 5 days at 27° C. The germinated seeds were then transferred to either media containing 1 μM PAC or media containing an equal volume of DMSO as a mock treatment. These seedlings were kept in the dark for 4 more days before being harvested for gene expression analysis.
This is consistent with GA's positive role in growth and served as a good indicator that the PAC was having an effect on the seedlings. As a positive control, expression of CrLHCB2.2 was measured; CrLHCB2.2 is a homologue of the light harvesting complex subunit B 2.2, which was previously shown to be activated by PAC treatment of dark-grown seedlings in A. thaliana.
Gene expression levels were monitored using quantitative real-time PCR (qRT-PCR) with primers listed in Table 1. mRNA was extracted from liquid nitrogen flash-frozen leaf tissue or seedlings stored at −80° C. […] Ct values for each biological replicate were calculated as the average of two technical replicates. Transcript levels were normalized to the housekeeping gene, SAND [76], and fold changes relative to the negative control condition were calculated according to the […]. Amplification efficiency for each primer set was confirmed using Ct values over a range of cDNA dilutions and was 100%±10% for each gene monitored. […]

[1] = test system: vindoline pathway gene expression; experiment: Paclobutrazol treatment of etiolated seedlings: vindoline pathway gene expression by qPCR; settings: 1 μM PAC, dark-grown seedlings, 4 days, vs DMSO mock
Method: as §1
Gene expression levels were monitored using quantitative real-time PCR (qRT-PCR) with primers listed in Table 1. mRNA was extracted from liquid nitrogen flash-frozen leaf tissue or seedlings stored at −80° C. While still frozen, tissue was crushed by shaking in a Mini-BeadBeater-16 (Biospec) for 15 seconds with ten 3 mm glass beads (Fisher). Afterwards, RNA was extracted with RNAzol-RT (Molecular Research Center) and the Direct-zol RNA Miniprep Plus Kit (Zymo Research) with on-column DNAse treatment to remove genomic DNA. RNA integrity was assessed using agarose gel electrophoresis, and concentration and purity were quantified with a NanoDrop (ND-1000 Spectrophotometer; ThermoScientific). cDNA was synthesized using either the SuperScript II First-Strand Synthesis System (Invitrogen) or the LunaScript RT SuperMix Kit (New England Biolabs) with up to 2.5 μg of RNA, according to manufacturer's instructions. cDNA was diluted 1:4, and 1 μL was used in a 10 μL reaction with SYBR Green ROX qPCR Master Mix (Qiagen or ABClonal) and 300 nM primers on the MX3000P qPCR instrument (Agilent) using the thermocycler protocol previously described with an extension time of 30 seconds. Ct values for each biological replicate were calculated as the average of two technical replicates. Transcript levels were normalized to the housekeeping gene, SAND [76], and fold changes relative to the negative control condition were calculated according to the […]. Amplification efficiency for each primer set was confirmed using Ct values over a range of cDNA dilutions and was 100%±10% for each gene monitored. Specificity of the primers were confirmed by gel electrophoresis and sequencing. SAND Ct values in no reverse-transcriptase controls were confirmed to be at least 5 Ct values above the respective experimental sample, indicating minimal genomic DNA contamination.
C. roseus var. Little Bright Eye seeds (NESeeds, 0.8 g) were sterilized by submersion in 4% Plant Preservative Mixture (PPM) for 18 hours in the dark. The PPM was then decanted, and the seeds were spread on full-strength Gamborg's media (3.1 g/L Gamborg's basal salts, 1× Gamborg's vitamins, and 6% micropropagation agar type 1, Phytotechnology Laboratory) inside a sterile Magenta™ Plant Culture Box (Sigma) for germination. Seeds were germinated in the dark at 27° C. for 5 days until the radicle of the seedling had just emerged. A 100 mM stock solution of paclobutrazol (PAC, PhytoTechnology Laboratories) was prepared with DMSO as the solvent, filter-sterilized, and stored at −20° C. until use. A final concentration of 1 μM PAC or an equivalent amount of DMSO (mock) was added to Gamborg's media after autoclaving. After germination, seedlings were sterilely transferred to a new Magenta™ Box containing Gamborg's media containing 1 μM PAC or DMSO. Seedlings were maintained in the dark at 27° C. for 4 days, and then were harvested by placing 3 whole seedlings in a 2 mL screw cap tube containing ten 3 mm glass beads for each biological replicate, flash-freezing in liquid nitrogen, and storing at −80° C. until ready for RNA extraction and qPCR analysis.

C. roseus seedlings = experiment: Paclobutrazol treatment of etiolated seedlings: seedling height; settings: 1 μM PAC, dark-grown seedlings, 4 days, vs DMSO mock
Method: as §1
Seedlings treated with PAC were photographed and lengths were measured with ImageJ. Statistical significance for all phenotype measurements was analyzed with a two-tailed unpaired T-test.
C. roseus var. Little Bright Eye seeds (NESeeds, 0.8 g) were sterilized by submersion in 4% Plant Preservative Mixture (PPM) for 18 hours in the dark. The PPM was then decanted, and the seeds were spread on full-strength Gamborg's media (3.1 g/L Gamborg's basal salts, 1× Gamborg's vitamins, and 6% micropropagation agar type 1, Phytotechnology Laboratory) inside a sterile Magenta™ Plant Culture Box (Sigma) for germination. […] Seedlings were maintained in the dark at 27° C. for 4 days, and then were harvested by placing 3 whole seedlings in a 2 mL screw cap tube containing ten 3 mm glass beads for each biological replicate, flash-freezing in liquid nitrogen, and storing at −80° C. until ready for RNA extraction and qPCR analysis.

[2] = test system: CrDELLA1 and CrDELLA2 transcript levels; experiment: Paclobutrazol treatment of etiolated seedlings: DELLA transcript levels by qPCR; settings: 1 μM PAC, dark-grown seedlings, 4 days, vs DMSO mock
Method: as §1
Gene expression levels were monitored using quantitative real-time PCR (qRT-PCR) with primers listed in Table 1. mRNA was extracted from liquid nitrogen flash-frozen leaf tissue or seedlings stored at −80° C. […] RNA integrity was assessed using agarose gel electrophoresis, and concentration and purity were quantified with a NanoDrop (ND-1000 Spectrophotometer; ThermoScientific). cDNA was synthesized using either the SuperScript II First-Strand Synthesis System (Invitrogen) or the LunaScript RT SuperMix Kit (New England Biolabs) with up to 2.5 μg of RNA, according to manufacturer's instructions. cDNA was diluted 1:4, and 1 μL was used in a 10 μL reaction with SYBR Green ROX qPCR Master Mix (Qiagen or ABClonal) and 300 nM primers on the MX3000P qPCR instrument (Agilent) using the thermocycler protocol previously described with an extension time of 30 seconds. Ct values for each biological replicate were calculated as the average of two technical replicates. […]

Question: Which results are given for `CC(C)(C)[C@@H](O)[C@@H](Cc1ccc(Cl)cc1)n1cncn1` (racemic) [PAC, paclobutrazol]?
Answer: activation of CrLHCB2.2 expression (CrLHCB2.2): > 2 fold; D4H gene expression [1]: significant decrease; T16H2 gene expression [1]: no effect; activation of DAT gene expression ([1]; not statistically significant): approximately 50%; activation of NMT gene expression ([1]; not statistically significant): approximately 50%; activation of T3O gene expression ([1]; not statistically significant): approximately 50%; activation of T3R gene expression ([1]; not statistically significant): approximately 50%; activation of 16OMT gene expression ([1]; statistically significant): approximately 50%; seedling height (C. roseus seedlings): significant decrease; CrDELLA1 expression [2]: significantly decreased expression; CrDELLA2 expression [2]: significantly decreased expression

— patent US20250304985A1, “Genetically Engineered Plants for Increased Production of Vindoline” (Northeastern University, priority 2022, published 2025)
